According to patent publication US10799561B2, “Method for increasing cardiac inflow by administering a compound that binds RXFP1” (Relaxera Pharmazeutische Gesellschaft GmbH & Co. KG, priority 2014, dated 2020):
“Also recorded” adds a separate entry of the source. Ends that are not written are not given here.

Key:
[1] = test system: mice with diastolic heart failure and controls; assay: subcutaneous infusion of relaxin in mice with diastolic dysfunction; assay type: in vivo
Experimental: The present inventors have therefore used an animal model for testing the treatment for DHF and of a stiffened heart muscle having insufficient relaxation and distensibility. The table below summarizes data obtained in mice with a type of diastolic heart failure as compared with controls. The subcutaneous infusion of isolated porcine relaxin over 12 weeks in mice (50 μg porcine relaxin/kg/d) decreased end-diastolic pressure and, consequently, improved E/A ratio, a functional parameter indicating the quality of ventricular filling. The subcutaneous infusion of relaxin was obtained by implanting in the neck portion of the mice a membrane capsule releasing continuously porcine relaxin.

[2] = test system: patients with heart failure; settings: intravenous infusion, hemodynamic monitoring; cited from earlier work
RXFP1 = molecular target: T1, RXFP1 (Homo sapiens, UniProt Q9HBX9); assay: cAMP reporter gene assay in HEK-293T cells stably expressing RXFP1; assay type: cell-based; settings: in words
T1 construct: expressed in transfected cells; host or cells: HEK-293T cells stably transfected with RXFP1
T1 sequence (Q9HBX9 1-757): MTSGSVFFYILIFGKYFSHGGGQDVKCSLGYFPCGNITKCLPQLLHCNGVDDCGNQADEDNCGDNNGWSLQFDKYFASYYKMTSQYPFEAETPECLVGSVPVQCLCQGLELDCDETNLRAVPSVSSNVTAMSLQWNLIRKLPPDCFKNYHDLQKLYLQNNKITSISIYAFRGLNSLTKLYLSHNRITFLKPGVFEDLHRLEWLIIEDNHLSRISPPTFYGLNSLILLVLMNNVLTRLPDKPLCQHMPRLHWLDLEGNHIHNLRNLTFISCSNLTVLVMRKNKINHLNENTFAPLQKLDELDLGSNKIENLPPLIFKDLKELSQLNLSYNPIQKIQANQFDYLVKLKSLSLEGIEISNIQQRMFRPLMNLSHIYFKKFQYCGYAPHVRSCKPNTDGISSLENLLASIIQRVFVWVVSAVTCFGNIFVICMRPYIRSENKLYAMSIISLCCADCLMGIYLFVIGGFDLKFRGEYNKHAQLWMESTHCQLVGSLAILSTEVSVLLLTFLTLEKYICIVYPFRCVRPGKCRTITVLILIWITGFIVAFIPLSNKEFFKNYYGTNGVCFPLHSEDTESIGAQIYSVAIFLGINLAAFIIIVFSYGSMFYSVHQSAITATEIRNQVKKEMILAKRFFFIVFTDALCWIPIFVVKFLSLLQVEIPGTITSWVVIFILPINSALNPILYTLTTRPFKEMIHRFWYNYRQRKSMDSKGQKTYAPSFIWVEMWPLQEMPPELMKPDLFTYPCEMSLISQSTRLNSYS
Experimental: Stimulation of the RXFP1 receptor results in the activation of adenylate cyclase and therefore in an increase in cAMP. […] Each concentration point was performed in triplicate and peptides were tested in at least three independent experiments. Data were analyzed with GraphPad Prism 4.0 (GraphPad Software, San Diego, Calif., USA), and a nonlinear regression sigmoidal dose-response (variable slope) model was used to plot curves and calculate pEC50 values.

[3] = control mice, 50 μg/kg/d s.c. infusion, 12 weeks, mean ± SEM
[4] = mice with diastolic dysfunction, 50 μg/kg/d s.c. infusion, 12 weeks, mean ± SEM

## porcine relaxin (Relaxin B chain QSTNDFIKACGRELVRLWVEICGSVSWGRTAL; Relaxin A chain RMTLSEKCCQVGCIRKDIARLC; not fully specified; ends and bridges not checked; UniProt P01348 25-56; P01348 161-182, looked up) [isolated porcine relaxin, released continuously from an implanted membrane capsule]
[1]; [3]
  E/A ratio: 2.4 ± 0.2
  LVEDP, left ventricular end-diastolic pressure: 5.2 ± 0.5 mm Hg
  LVSP, left ventricular systolic pressure: 109 ± 10 mm Hg
[1]; control mice, in words
  effect on heart function in controls: no pharmaceutical effects were noted
[1]; mice with diastolic dysfunction, 50 μg/kg/d s.c. over 12 weeks, in words
  E/A ratio: improved; also recorded: dramatically shifted back to the normal range
[1]; [4]
  E/A ratio: 2.0 ± 0.2
  LVEDP, left ventricular end-diastolic pressure: 7.0 ± 0.6 mm Hg
  LVSP, left ventricular systolic pressure: 111 ± 12 mm Hg
[1]; mice, 50 μg/kg/d s.c. over 12 weeks, in words
  end-diastolic pressure: decreased

## recombinant human relaxin-2 [rhRlx]
[2]
  cardiac index: trends toward increases
  pulmonary wedge pressure: decreases

## CC[C@H](C)[C@@H]1NC(=O)[C@H](C)NC(=O)[C@H]([C@@H](C)CC)NC(=O)[C@H](CCC(N)=O)NC(=O)[C@H](C)NC(=O)[C@H](CCCNC(=N)N)NC(=O)[C@H](C(C)C)NC(=O)[C@H](CC(C)C)NC(=O)[C@H](CCC(=O)O)NC(=O)[C@H](CCCNC(=N)N)NC(=O)CNC(=O)[C@@H](NC(=O)[C@H](CC(C)C)NC(=O)[C@H](CCCCN)NC(=O)[C@@H](NC(=O)[C@@H](NC(=O)[C@H](CCC(=O)O)NC(=O)[C@H](CCC(=O)O)NC(=O)[C@H](CCSC)NC(=O)[C@H](Cc2c[nH]c3ccccc23)NC(=O)[C@@H](N)CO)C(C)C)[C@@H](C)CC)CSSC[C@@H]2NC(=O)[C@@H](NC(=O)[C@H](CCCCN)NC(=O)[C@H](CC(N)=O)NC(=O)[C@H](C)NC(=O)[C@H](CC(C)C)NC(=O)[C@H](C)NC(=O)[C@H](CO)NC(=O)[C@H](Cc3ccc(O)cc3)NC(=O)[C@H](CC(C)C)NC(=O)[C@@H]3CCC(=O)N3)CSSC[C@H](NC(=O)CNC(=O)[C@H](C(C)C)NC(=O)[C@H](Cc3c[nH]cn3)NC2=O)C(=O)N[C@@H]([C@@H](C)O)C(=O)N[C@@H](CCCCN)C(=O)N[C@@H](CCCNC(=N)N)C(=O)N[C@@H](CO)C(=O)N[C@@H](CC(C)C)C(=O)N[C@@H](C)C(=O)N[C@@H](CCCNC(=N)N)C(=O)N[C@@H](Cc2ccccc2)C(=O)N[C@H](C(=O)O)CSSC[C@@H](C(=O)NCC(=O)N[C@@H](CCSC)C(=O)N[C@@H](CO)C(=O)N[C@H](C(=O)N[C@@H](Cc2c[nH]c3ccccc23)C(=O)N[C@@H](CO)C(=O)O)[C@@H](C)O)NC1=O [-Asp-shRlx]
RXFP1
  biological activity of the by-product: biologically fully active
